Legend:
[1] = system: differentiated 3T3-L1 adipocytes; test: Lipid metabolism in differentiated 3T3-L1 adipocytes in vitro; format: cell-based, Murine; settings: 24 h incubation, 5 μM OT
Protocol: The in vitro effect of OT on lipid metabolism in differentiated 3T3-L1 adipocytes was assayed as follows. Murine 3T3-L1 fibroblasts were differentiated towards a […] phenotype as previously described (Olson et al., 1997, Mol. Cell. Biol., 2425-2435). In brief, cells were cultured in Dulbecco's modified eagle medium (DMEM) with 4.5 g/l glucose supplemented with 10% heat-inactivated depleted calf serum (DCS) at 37° C./8% CO2. Cells were induced to differentiate, two days post confluence, by sequential incubations with: DMEM 4.5 g/l glucose, 10% fetal bovine serum (FCS) containing 1 μg/ml insulin, 0.25 μM dexamethasone and 0.5 mM isobutylmethylxanthane (IBMX) for 4 days; DMEM 4.5 g/l glucose, 10% FCS containing insulin alone for an additional 4 days; DMEM 4.5 g/l glucose, 10% FCS for 3-4 days. Differentiation was considered achieved when more than 90% of cells display an accumulation of large lipid droplets in their cytoplasm.

[2] = system: PPAR-alpha knockout (KO) mice; test: Peripheral OT infusion in PPAR-alpha knockout mice; format: in vivo; settings: peripheral 50 nmol/day over 3 days
Protocol: The beneficial metabolic effects of OT administration were assayed in the same high-fat diet induced obesity model in rats as in Example 1 and in PPAR-alpha knockout mice (Lee et al., 1995, Mol. Cell. Biol., 15(6):3012-22). HFD-induced obese animals, saline or OT groups (see conditions under Example 1) were subcutaneously infused via minipumps (Alzet®, as above). OT was delivered at a dose of 50 nmol/day/rat during 14 days.
OT was peripherally administered with 50 nmol/day over 3 days in PPAR-alpha knockout (KO) mice and their wild-type littermates. […] Consistently, OT peripheral infusion promoted an increase in the mRNA expression of PPAR-alpha target genes (Acadm, Acox1, Ehhadh, Ucp3) in wild-type mice, while it had no effect in PPAR-alpha knockouts.

HFD-induced obese rats [3] = test: High-fat diet-induced obesity rat model, subcutaneous infusion: body weight gain, food intake, body composition; format: in vivo; settings: s.c. OT 50 nmol/day, 10 days, independent of food intake
[4] = system: enzymes involved in lipid metabolism; test: Tissue expression of lipid metabolism enzymes (real-time RT-PCR) after i.c.v. OT infusion; format: in vivo, rat
Protocol: To delineate the mechanisms responsible for the effect on peripheral metabolism, the expression of enzymes involved in lipid metabolism was analyzed in adipose tissues (epididymal white and interscapular brown adipose tissues). Total RNAs were extracted from frozen tissue using a single-step extraction with Trizol reagent (Sigma-Aldrich, Buchs, Switzerland). RNA integrity was assessed by electrophoresis on a 1% agarose gel and concentration was determined by spectrophotometry. An amount of 2.5 μg of total RNAs was used for RT using random hexamers (Microsynth, Geneva, Switzerland), dNTPs (Promega Corporation, Madison, Wis., USA), RNasin as an RNase inhibitor (Promega Corporation) and the Moloney Murine Leukemia Virus Reverse Transcriptase (M-MLV-RT) enzyme kit (Invitrogen, Basel, Switzerland). For quantitative PCR (qPCR), amplification of genes was performed from 6.25 or 12.5 ng cDNA, using the SYBR® green PCR Master Mix (Applied Biosystems, Warrington, UK) and an ABI7500 machine (Applied Biosystems, Foster City, Calif.). All the primers were designed (FIG. 9, Table 1) with the PrimerExpress software (http://phym.unige.ch/) and used at a concentration of 200 to 300 nM for qPCR. Results were normalized to the expression levels of the housekeeping gene, ribosomal protein S29 (RPS29).

[5] = system: epididymal white adipose tissue (eWAT); test: eWAT endocannabinoid content after i.c.v. OT infusion; format: in vivo, rat
HFD-induced obese rats [6] = test: Glucose tolerance tests after i.c.v. OT infusion; format: in vivo, rat; settings: after 7 weeks of HFD, i.c.v. 1.6 nmol/d
Protocol: The impact of OT-induced changes in peripheral lipid metabolism on glucose tolerance and insulin sensitivity was determined by glucose tolerance tests (GTT). Glucose (75 mg/kg body weight) was intraperitoneally administered 4 h after food removal. Blood glucose levels were measured using a glucose meter (One Touch II; LifeScan) from tail blood samples at 0, 15, 30, 60, 90, and 120 min after glucose injection.
Two glucose tolerance tests (GTT) were performed, a first one after […] of HFD (i.e. before the respective saline and OT treatments) and a second one at the end of the 2 week saline or OT infusion (i.e. after 7 weeks of HFD).

[7] = interscapular brown adipose tissue (BAT), i.c.v. OT

CC[C@H](C)[C@@H]1NC(=O)[C@H](Cc2ccc(O)cc2)NC(=O)[C@@H](N)CSSC[C@@H](C(=O)N2CCC[C@H]2C(=O)N[C@@H](CC(C)C)C(=O)NCC(N)=O)NC(=O)[C@H](CC(N)=O)NC(=O)[C@H](CCC(N)=O)NC1=O [OT, Cys-Tyr-Ile-Gln-Asn-Cys-Pro-Leu-Gly (SEQ ID NO: 1)]
OEA content [1]: increased | PPAR-alpha mRNA expression [1]: stimulatory effect | mRNA expression of all the lipid metabolism-related genes affected by central OT infusion [1]: increased | Scd1 mRNA expression ([1]; relative to effect in centrally infused rats): less marked | body weight gain [2]: did not modify | mRNA expression of PPAR-alpha target genes (Acadm, Acox1, Ehhadh, Ucp3) [2]: no effect | fat mass (QMR) (HFD-induced obese rats [3]): significant decrease | percent lean body mass (QMR) (HFD-induced obese rats [3]): increase | mRNA expression of PPAR-alpha and its target genes ([4]; BAT, OT infusion (16 nmol/d experiment)): significantly increased | Acaca mRNA expression ([4]; eWAT, i.c.v. 1.6 nmol/d): did not modify | Acadm mRNA expression ([4]; eWAT, i.c.v. 1.6 nmol/d): increased | Acox1 mRNA expression ([4]; eWAT, i.c.v. 1.6 nmol/d): increased | Dgat1 mRNA expression ([4]; eWAT, i.c.v. 1.6 nmol/d): did not modify | Ehhadh mRNA expression ([4]; eWAT, i.c.v. 1.6 nmol/d): increased | Fasn mRNA expression ([4]; eWAT, i.c.v. 1.6 nmol/d): did not modify | HSL mRNA expression ([4]; eWAT, i.c.v. 1.6 nmol/d): increased | Lpl mRNA expression ([4]; eWAT, i.c.v. 1.6 nmol/d): increase | Pnpla2 mRNA expression ([4]; eWAT, i.c.v. 1.6 nmol/d): increased | Scd1 mRNA expression ([4]; eWAT, i.c.v. 1.6 nmol/d): marked increase | Ucp3 mRNA expression ([4]; eWAT, i.c.v. 1.6 nmol/d): enhanced | PPAR-alpha mRNA ([4]; eWAT, i.c.v. 16 nmol/d): did not modify | expression of PPAR-alpha target genes (Acadm, Acox1, Ehhadh, Ucp3) ([4]; eWAT, i.c.v. 16 nmol/d, food intake-independent): increases | stimulatory effect on Scd1 mRNA expression ([4]; i.c.v. 1.6 nmol/d (lower dose)): 4.2 folds | stimulatory effect on Scd1 mRNA expression ([4]; i.c.v. 16 nmol/d): 5.6 folds | PPAR-alpha expression [4, 7]: significantly increased | expression of the main enzymes involved in fatty acid β-oxidation [4, 7]: significantly increased | expression of genes involved in fatty acid β-oxidation ([4]; skeletal muscle, central OT infusion): did not modify | eWAT OEA content ([5]; chronic i.c.v. OT 1.6 nmol/d, compared with saline): increased | eWAT content of other endocannabinoids (PEA, AEA, 2-AG) ([5]; chronic i.c.v. OT infusion): not modifying | stimulatory effect on OEA content ([5]; i.c.v. 1.6 nmol/d (lower dose)): 1.3 folds | stimulatory effect on OEA content ([5]; i.c.v. 16 nmol/d): 2 folds | insulin oversecretion during GTT (HFD-induced obese rats [6]): not observed | glucose tolerance (GTT) (HFD-induced obese rats [6]; compared to GTT after 3 weeks of HFD): impairment
